# Test results: patent US12129237B2, “Substituted diaminocarboxamide and diaminocarbonitrile pyrimidines, compositions thereof, and methods of treatment therewith” (SIGNAL PHARMACEUTICALS, LLC, priority 2011, dated 2024)
# Target: T1, JNK1 (Homo sapiens, UniProt P45983)
# T1 construct: purchased Carna Biosciences
# Test: JNK1 biochemical assays (one or more of: time resolved fluorescence, Z'-LYTE Cascade, radioactive)
# Conditions: one or more of the JNK1 biochemical assays; read-out: Act. Level (JNK1 IC50 activity level)
# T1 sequence (P45983 whole entry): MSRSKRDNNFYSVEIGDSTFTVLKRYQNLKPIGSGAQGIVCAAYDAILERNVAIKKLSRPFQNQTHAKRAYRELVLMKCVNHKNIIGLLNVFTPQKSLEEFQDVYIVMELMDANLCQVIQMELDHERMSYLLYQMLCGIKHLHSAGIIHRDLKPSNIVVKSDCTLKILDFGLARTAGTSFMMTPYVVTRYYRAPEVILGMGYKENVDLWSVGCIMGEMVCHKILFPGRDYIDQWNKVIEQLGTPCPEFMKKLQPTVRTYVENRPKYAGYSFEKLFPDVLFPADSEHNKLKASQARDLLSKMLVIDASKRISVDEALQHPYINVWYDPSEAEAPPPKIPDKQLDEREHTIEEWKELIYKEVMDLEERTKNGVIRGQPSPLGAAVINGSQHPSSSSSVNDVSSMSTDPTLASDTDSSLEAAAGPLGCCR
row,SMILES,IC50 [nM]
1,"CC(C)(C)Nc1nc(N[C@H]2CC[C@](C)(O)CC2)ncc1C(N)=O [Example 302, 4-(tert-butylamino)-2-((1r,4r)-4-hydroxy-4-methylcyclohexylamino)pyrimidine-5-carboxamide]",< 200
2,"CC(C)(C)Nc1nc(NC2COC2)ncc1C(N)=O [Example 303, 4-(tert-butylamino)-2-(oxetan-3-ylamino)pyrimidine-5-carboxamide]",200 to 800
3,"CC(C)(C)Nc1nc(N[C@H]2CC[C@H](OC3CC3)CC2)ncc1C(N)=O [Example 304, 4-(tert-butylamino)-2-((1r,4r)-4-cyclopropoxycyclohexylamino)pyrimidine-5-carboxamide]",< 200
4,"CC(C)(C)Nc1nc(N[C@H]2CCC[C@H](O)C2)ncc1C(N)=O [Example 305, 4-(tert-butylamino)-2-((1S,3S)-3-hydroxycyclohexylamino)pyrimidine-5-carboxamide]",< 200
5,"CC(C)(C)Nc1nc(N[C@H]2CCC[C@@H](O)C2)ncc1C(N)=O [Example 306, 4-(tert-butylamino)-2-((1S,3R)-3-hydroxycyclohexylamino)pyrimidine-5-carboxamide]",< 200
6,"CC(C)(C)Nc1nc(N[C@@H]2CCC[C@H](O)C2)ncc1C(N)=O [Example 307, 4-(tert-butylamino)-2-((1R,3S)-3-hydroxycyclohexylamino)pyrimidine-5-carboxamide]",< 200
7,"CN(C)C(=O)[C@H]1CC[C@H](Nc2ncc(C(N)=O)c(NC(C)(C)C)n2)CC1 [Example 308, 4-(tert-butylamino)-2-((1r,4r)-4-(dimethylcarbamoyl)cyclohexylamino)pyrimidine-5-carboxamide]",< 200
8,"CCO[C@H]1CC[C@H](Nc2ncc(C(N)=O)c(NC(C)(C)CO)n2)CC1 [Example 309, 2-((1r,4r)-4-ethoxycyclohexylamino)-4-(1-hydroxy-2-methylpropan-2-ylamino)pyrimidine-5-carboxamide]",< 200
9,"CO[C@H]1CC[C@H](Nc2ncc(C(N)=O)c(NC(C)(C)CO)n2)CC1 [Example 310, 4-(1-hydroxy-2-methylpropan-2-ylamino)-2-((1r,4r)-4-methoxycyclohexylamino)pyrimidine-5-carboxamide]",< 200
10,"CC(C)(CO)Nc1nc(N[C@H]2CC[C@H](O)CC2)ncc1C(N)=O [Example 311, 4-(1-hydroxy-2-methylpropan-2-ylamino)-2-((1r,4r)-4-hydroxycyclohexylamino)pyrimidine-5-carboxamide]",< 200
11,"CCO[C@H]1CC[C@H](Nc2ncc(C(N)=O)c(NC(C)(C)C3CC3)n2)CC1 [Example 314, 4-(2-cyclopropylpropan-2-ylamino)-2-((1r,4r)-4-ethoxycyclohexylamino)pyrimidine-5-carboxamide]",< 200
12,"CO[C@H]1CC[C@H](Nc2ncc(C(N)=O)c(NC(C)(C)C3CC3)n2)CC1 [Example 315, 4-(2-cyclopropylpropan-2-ylamino)-2-((1r,4r)-4-methoxycyclohexylamino)pyrimidine-5-carboxamide]",< 200
13,"CC(C)(Nc1nc(N[C@H]2CC[C@H](O)CC2)ncc1C(N)=O)C1CC1 [Example 316, 4-(2-cyclopropylpropan-2-ylamino)-2-((1r,4r)-4-hydroxycyclohexylamino)pyrimidine-5-carboxamide]",< 200
14,"CC(C)(C)Nc1nc(NC2CCC(F)(F)CC2)ncc1C(N)=O [Example 318, 4-(tert-butylamino)-2-(4,4-difluorocyclohexylamino)pyrimidine-5-carboxamide]",< 200
15,"CC(C)(C)Nc1nc(N[C@H]2CC[C@H](OC(F)F)CC2)ncc1C(N)=O [Example 319, 4-(tert-butylamino)-2-((1r,4r)-4-(difluoromethoxy)cyclohexylamino)pyrimidine-5-carboxamide]",< 200
16,"C[C@]1(O)CCCC(Nc2nc(NC34CCC(F)(CC3)CC4)ncc2C(N)=O)C1 (stereo partly drawn) [Example 321, 2-(4-fluorobicyclo[2.2.2]octan-1-ylamino)-4-((3S)-3-hydroxy-3-methylcyclohexylamino)pyrimidine-5-carboxamide]",< 200
17,"CC1(Nc2nc(N[C@H]3CC[C@H](O)CC3)ncc2C(N)=O)CCCC1 [Example 322, 2-((1r,4r)-4-hydroxycyclohexylamino)-4-(1-methylcyclopentylamino)pyrimidine-5-carboxamide]",< 200
18,"CC(C)(C)Nc1ncc(C(N)=O)c(N[C@H]2CCC(C)(C)[C@@H](O)C2)n1 [Example 323, 2-(tert-butylamino)-4-((1S,3S)-3-hydroxy-4,4-dimethylcyclohexylamino)pyrimidine-5-carboxamide]",200 to 800
19,"CC(C)(C)Nc1ncc(C(N)=O)c(N[C@@H]2CCC(C)(C)[C@H](O)C2)n1 [Example 324, 2-(tert-butylamino)-4-((1R,3R)-3-hydroxy-4,4-dimethylcyclohexylamino)pyrimidine-5-carboxamide]",< 200
20,"CCO[C@H]1CC[C@H](Nc2ncc(C(N)=O)c(NC(C)(C)C(C)(C)C)n2)CC1 [Example 332, 2-((1r,4r)-4-ethoxycyclohexylamino)-4-(2,3,3-trimethylbutan-2-ylamino)pyrimidine-5-carboxamide]",< 200
21,"CO[C@H]1CC[C@H](Nc2ncc(C(N)=O)c(NC(C)(C)C(C)(C)C)n2)CC1 [Example 333, 2-((1r,4r)-4-methoxycyclohexylamino)-4-(2,3,3-trimethylbutan-2-ylamino)pyrimidine-5-carboxamide]",< 200
22,"CC(C)(C)C(C)(C)Nc1nc(N[C@H]2CC[C@H](O)CC2)ncc1C(N)=O [Example 334, 2-((1r,4r)-4-hydroxycyclohexylamino)-4-(2,3,3-trimethylbutan-2-ylamino)pyrimidine-5-carboxamide]",< 200
23,"NC(=O)c1cnc(NC23CCC(F)(CC2)CC3)nc1N[C@@H]1CCCC[C@H](O)C1 [Example 335, 2-(4-fluorobicyclo[2.2.2]octan-1-ylamino)-4-((1R,3S)-3-hydroxycycloheptylamino)pyrimidine-5-carboxamide]",< 200
24,"CC(C)Nc1ncc(C(N)=O)c(N[C@@H]2CCC[C@](C)(O)C2)n1 [Example 338, 4-((1R,3S)-3-hydroxy-3-methylcyclohexylamino)-2-(isopropylamino)pyrimidine-5-carboxamide]",< 200

# Further lines, results first:
row,IC50 [nM],SMILES
1,< 200,"C[C@@H]1CC[C@@H](Nc2nc(NC3COC3)ncc2C(N)=O)C[C@H]1O [Example 312, 4-((1R,3R,4R)-3-hydroxy-4-methylcyclohexylamino)-2-(oxetan-3-ylamino)pyrimidine-5-carboxamide]"
2,< 200,"CCO[C@H]1CC[C@H](Nc2ncc(C(N)=O)c(N[C@H]3C[C@H](C)C3)n2)CC1 [Example 313, 2-((1r,4r)-4-ethoxycyclohexylamino)-4-((1r,3r)-3-methylcyclobutylamino)pyrimidine-5-carboxamide]"
3,< 200,"CC(C)(C)Nc1nc(NC2CCOCC2)ncc1C(N)=O [Example 317, 4-(tert-butylamino)-2-(tetrahydro-2H-pyran-4-ylamino)pyrimidine-5-carboxamide]"
4,< 200,"C[C@H]1C[C@H](Nc2nc(N[C@H]3CC[C@H](O)CC3)ncc2C(N)=O)C1 [Example 325, 2-((1r,4r)-4-hydroxycyclohexylamino)-4-((1r,3r)-3-methylcyclobutylamino)pyrimidine-5-carboxamide]"
5,< 200,"CCO[C@H]1CC[C@H](Nc2ncc(C(N)=O)c(N[C@H]3C[C@@H](C)C3)n2)CC1 [Example 326, 2-((1r,4r)-4-ethoxycyclohexylamino)-4-((1s,3s)-3-methylcyclobutylamino)pyrimidine-5-carboxamide]"
6,< 200,"C[C@H]1C[C@@H](Nc2nc(N[C@H]3CC[C@H](O)CC3)ncc2C(N)=O)C1 [Example 327, 2-((1r,4r)-4-hydroxycyclohexylamino)-4-((1s,3s)-3-methylcyclobutylamino)pyrimidine-5-carboxamide]"
7,< 200,"NC(=O)c1cnc(NC2CCOCC2)nc1N[C@@H]1CCC[C@H]1CO [Example 328, 4-((1R,2R)-2-(hydroxymethyl)cyclopentylamino)-2-(tetrahydro-2H-pyran-4-ylamino)pyrimidine-5-carboxamide]"
8,< 200,"NC(=O)c1cnc(N[C@H]2CC[C@H](OC(F)F)CC2)nc1N[C@@H]1CCC[C@H]1CO [Example 329, 2-((1r,4R)-4-(difluoromethoxy)cyclohexylamino)-4-((1R,2R)-2-(hydroxymethyl)cyclopentylamino)pyrimidine-5-carboxamide]"
9,< 200,"CC(C)(C)Nc1ncc(C(N)=O)c(N[C@@H]2CCC[C@H]2CO)n1 [Example 330, 2-(tert-butylamino)-4-((1R,2R)-2-(hydroxymethyl)cyclopentylamino)pyrimidine-5-carboxamide]"
10,< 200,"NC(=O)c1cnc(N[C@H]2CC[C@H](OCC(F)(F)F)CC2)nc1N[C@@H]1CCC[C@H]1CO [Example 331, 4-((1R,2R)-2-(hydroxymethyl)cyclopentylamino)-2-((1r,4R)-4-(2,2,2-trifluoroethoxy)cyclohexylamino)pyrimidine-5-carboxamide]"
11,< 200,"CO[C@H]1CC[C@H](Nc2ncc(C(N)=O)c(N[C@H]3C[C@H](C)C3)n2)CC1 [Example 336, 2-((1r,4r)-4-methoxycyclohexylamino)-4-((1r,3r)-3-methylcyclobutylamino)pyrimidine-5-carboxamide]"
12,< 200,"CO[C@H]1CC[C@H](Nc2ncc(C(N)=O)c(N[C@H]3C[C@@H](C)C3)n2)CC1 [Example 337, 2-((1r,4r)-4-methoxycyclohexylamino)-4-((1s,3s)-3-methycyclobutylamino)pyrimidine-5-carboxamide]"
13,< 200,"NC(=O)c1cnc(NC2CCC2)nc1N[C@@H]1CCCC[C@H](O)C1 [Example 339, 2-(cyclobutylamino)-4-((1R,3S)-3-hydroxycycloheptylamino)pyrimidine-5-carboxamide]"
14,< 200,"C[C@]1(O)CCC[C@@H](Nc2nc(NC3CCC3)ncc2C(N)=O)C1 [Example 340, 2-(cyclobutylamino)-4-((1R,3S)-3-hydroxy-3-methylcyclohexylamino)pyrimidine-5-carboxamide]"
15,< 200,"NC(=O)c1cnc(NC2CCC2)nc1N[C@@H]1CCC[C@H](O)C1 [Example 341, 2-(cyclobutylamino)-4-((1R,3S)-3-hydroxycyclohexylamino)pyrimidine-5-carboxamide]"
